According to ChEMBL document CHEMBL1133281, “Synthesis and HIV-1 integrase inhibitory activities of caffeoylglucosides” (Bioorg Med Chem Lett, 2000):

Target: Human immunodeficiency virus type 1 integrase (Human immunodeficiency virus 1, UniProt Q7ZJM1)
Test: Inhibitory activity against HIV-1 integrase

Human immunodeficiency virus type 1 integrase, sequence (Q7ZJM1 whole entry): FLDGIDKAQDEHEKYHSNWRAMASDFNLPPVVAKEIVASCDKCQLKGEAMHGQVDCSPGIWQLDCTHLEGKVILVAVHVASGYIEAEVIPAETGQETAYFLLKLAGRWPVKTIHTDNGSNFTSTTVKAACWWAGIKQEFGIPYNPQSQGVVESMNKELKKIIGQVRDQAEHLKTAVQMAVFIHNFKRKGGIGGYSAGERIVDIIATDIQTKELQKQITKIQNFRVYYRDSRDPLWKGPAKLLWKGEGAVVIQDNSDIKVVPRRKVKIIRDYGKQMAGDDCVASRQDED

Row | Structure (SMILES) | IC50
1 | CO[C@@H]1O[C@H](CO)[C@@H](O)[C@H](OC(=O)/C=C/c2ccc(O)c(O)c2)[C@H]1OC(=O)/C=C/c1ccc(O)c(O)c1 | 31.8 µM
2 | CO[C@@H]1O[C@H](COC(=O)/C=C/c2ccc(O)c(O)c2)[C@@H](O)[C@H](OC(=O)/C=C/c2ccc(O)c(O)c2)[C@H]1O | 35.1 µM
3 | COC1O[C@H](CO)[C@@H](O)[C@H](OC(=O)c2cc(O)c(O)c(O)c2)[C@H]1OC(=O)c1cc(O)c(O)c(O)c1 (stereo partly specified) | 5.4 µM
4 | CO[C@H]1O[C@H](CO)[C@@H](O)[C@H](OC(=O)/C=C/c2ccc(O)c(O)c2)[C@H]1OC(=O)/C=C/c1ccc(O)c(O)c1 | 29.1 µM
5 | C[C@@H]1O[C@@H](O[C@@H]2[C@@H](O)[C@H](OCCc3ccc(O)c(O)c3)O[C@H](CO)[C@H]2OC(=O)/C=C/c2ccc(O)c(O)c2)[C@H](O)[C@H](O)[C@H]1O [ACETOSIDE] | 7.8 µM

Now from value to compound:

Row | IC50 | Structure (SMILES)
6 | 70 µM | CO[C@H]1O[C@H](COC(=O)/C=C/c2ccc(O)c(O)c2)[C@@H](O)[C@H](O)[C@H]1OC(=O)/C=C/c1ccc(O)c(O)c1
7 | 89.6 µM | CO[C@@H]1O[C@H](COC(=O)/C=C/c2ccc(O)c(O)c2)[C@@H](OC(=O)/C=C/c2ccc(O)c(O)c2)[C@H](OC(=O)/C=C/c2ccc(O)c(O)c2)[C@H]1OC(=O)/C=C/c1ccc(O)c(O)c1
8 | > 119 µM | CO[C@H]1O[C@H](COC(=O)/C=C/c2ccc(O)c(O)c2)[C@@H](OC(=O)/C=C/c2ccc(O)c(O)c2)[C@H](OC(=O)/C=C/c2ccc(O)c(O)c2)[C@H]1OC(=O)/C=C/c1ccc(O)c(O)c1
9 | 82.4 µM | CO[C@H]1O[C@H](COC(=O)/C=C/c2ccc(O)c(O)c2)[C@@H](O)[C@H](OC(=O)/C=C/c2ccc(O)c(O)c2)[C@H]1O
10 | 57.5 µM | COc1cc(/C=C/C(=O)CC(=O)/C=C/c2ccc(O)c(OC)c2)ccc1O [CURCUMIN]
11 | 30.5 µM | CO[C@@H]1O[C@H](COC(=O)/C=C/c2ccc(O)c(O)c2)[C@@H](O)[C@H](O)[C@H]1OC(=O)/C=C/c1ccc(O)c(O)c1
